Assay results from patent publication US12410171B2, “Tropomyosin receptor kinase (TRK) degradation compounds and methods of use” (Cullgen (Shanghai), Inc., priority 2020, dated 2025).
pIC50: −log10 of the molar value. One block for each compound: values may come before it.

Tests used:
[1] = target: T1, TPM3-TRKA fusion protein (Homo sapiens, UniProt P04629); experiment: TPM3-TRKA fusion protein levels in KM12 cells (Western blot); format: cell-based; details: for TRKA protein levels: dose range (FIG. 8); for percent degradation of TPM3-TRKA protein at 0.01 µM: 16 h, TPM3-TRKA degradation in KM12 cells at 10 nM compound, category of percentage degradation, read-out: Degradation (at 10 nM)
T1 construct: The resulted chimeric proteins always retain the kinase domain of TRK proteins; TPM3 (fusion partner, N-terminal part of tropomyosin alpha-3, P06753); endogenous in cells; host or cells: KM12 colon cancer cells; the other entry of the earlier key: TPM3 (P06753, Tropomyosin alpha-3 chain)
T1 sequence (P04629 with tags, fused parts or gaps): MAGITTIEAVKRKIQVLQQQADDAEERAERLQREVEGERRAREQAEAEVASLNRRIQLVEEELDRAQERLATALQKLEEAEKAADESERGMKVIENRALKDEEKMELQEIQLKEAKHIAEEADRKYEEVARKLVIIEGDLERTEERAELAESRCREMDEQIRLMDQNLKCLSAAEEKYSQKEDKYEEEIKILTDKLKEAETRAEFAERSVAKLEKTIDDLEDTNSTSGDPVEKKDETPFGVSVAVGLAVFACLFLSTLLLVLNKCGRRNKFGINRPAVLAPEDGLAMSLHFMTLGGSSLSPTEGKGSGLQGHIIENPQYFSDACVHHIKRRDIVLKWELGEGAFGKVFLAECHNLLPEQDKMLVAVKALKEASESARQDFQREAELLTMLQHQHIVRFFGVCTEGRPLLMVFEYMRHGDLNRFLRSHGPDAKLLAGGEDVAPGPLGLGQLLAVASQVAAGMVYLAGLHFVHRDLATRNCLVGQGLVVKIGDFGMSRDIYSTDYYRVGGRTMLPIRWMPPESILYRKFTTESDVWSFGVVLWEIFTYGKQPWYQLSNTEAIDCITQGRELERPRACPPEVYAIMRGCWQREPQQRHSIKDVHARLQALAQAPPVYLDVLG
In short: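 KM12 colon cancer cells were treated with DMSO or compounds at 0.1–100 nM, 0.4–30 nM or other stated concentrations for 4, 8–16 or 16 h. RIPA lysates were BCA-normalized and resolved by SDS-PAGE. TPM3-TRKA was detected by chemiluminescent Western blot, with bands quantified by densitometry.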

[2] = target: T2, wildtype TRKA protein (Homo sapiens, UniProt P04629); experiment: Wildtype TRKA protein levels in HEL erythroleukemia cells (Western blot); format: cell-based; details: for TRKA protein levels: dose range (FIG. 8)
T2 construct: wildtype TRKA protein expressed by HEL cells; endogenous in cells; host or cells: HEL erythroleukemia cells
T2 sequence (P04629 33-796): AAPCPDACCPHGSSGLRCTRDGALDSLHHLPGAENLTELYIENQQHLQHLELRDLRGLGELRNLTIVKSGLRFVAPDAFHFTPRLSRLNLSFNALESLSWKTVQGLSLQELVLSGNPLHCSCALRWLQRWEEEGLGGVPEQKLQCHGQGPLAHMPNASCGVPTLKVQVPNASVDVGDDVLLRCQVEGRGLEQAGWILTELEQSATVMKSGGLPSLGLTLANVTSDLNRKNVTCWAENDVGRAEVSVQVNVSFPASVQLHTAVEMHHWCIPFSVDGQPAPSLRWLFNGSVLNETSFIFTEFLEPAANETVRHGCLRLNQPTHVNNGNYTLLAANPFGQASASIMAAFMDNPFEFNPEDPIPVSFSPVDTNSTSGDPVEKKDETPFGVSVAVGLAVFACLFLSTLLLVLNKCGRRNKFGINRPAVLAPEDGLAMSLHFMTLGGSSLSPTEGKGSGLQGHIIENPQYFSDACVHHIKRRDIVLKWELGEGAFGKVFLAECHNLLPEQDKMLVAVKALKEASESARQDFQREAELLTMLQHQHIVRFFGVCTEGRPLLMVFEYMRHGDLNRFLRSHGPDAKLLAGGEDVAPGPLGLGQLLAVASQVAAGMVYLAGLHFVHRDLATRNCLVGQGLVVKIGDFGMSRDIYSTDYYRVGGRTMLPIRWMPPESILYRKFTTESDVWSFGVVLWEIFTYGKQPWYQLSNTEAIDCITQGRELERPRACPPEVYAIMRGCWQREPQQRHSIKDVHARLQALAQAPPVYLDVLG
Method: KM12 or HEL cells were treated with a dose range of compound TR-123 or TR-123-negative. The latter lost binding to cereblon (CRBN) due to a chemical modification.
KM12 or HEL cells were treated with a single dose of compound TR-123 or combination with MG-132, Bortezomib, MLN4924 or Pomalidomide.
HEL cells were treated with heterobifunctional compounds at 10 nM or 100 nM for 16 hours.
KM12, H358, HEL, SU-DHL-1 and other cells were cultured at 37° C. with 5% CO2 in RPMI 1640 Medium supplemented with 10% fetal bovine serum. Cells were authenticated using the short tandem repeat (STR) assays. Mycoplasma test results were negative. Stable cell lines were established by lentivirus transduction, selected and maintained in medium containing 1 μg/mL puromycin (Beyotime Biotechnology).
Cultured cells were washed with cold PBS once and lysed in cold RIPA buffer supplemented with protease inhibitors and phosphatase inhibitors (Beyotime Biotechnology). The solutions were then incubated at 4° C. for 30 minutes with gentle agitation to fully lyse cells. For tumor tissues, tumors were cut into small pieces, milled with cold RIPA buffer using a mechanical homogenizer and lysed for 1 hour at 4° C. Cell lysates were centrifuged at 13,000 rpm for 10 minutes at 4° C. and pellets were discarded. Total protein concentrations in the lysates were determined by BCA assays (Beyotime Biotechnology). Cell lysates were mixed with Laemmli loading buffer to 1× and heated at 99° C. for 5 min. Proteins were resolved on SDS-PAGE and visualized by chemiluminescence. Images were taken by a ChemiDoc MP Imaging system (Bio-Rad). Protein bands were quantitated using the software provided by Bio-Rad.

[3] = tested on: KM12 subcutaneous xenograft tumors; experiment: KM12 subcutaneous xenograft tumor growth; format: in vivo, Athymic nude mice; details: 10-20 mg/kg qd or bid via oral gavage (FIG. 15A-15B)
Method: Athymic nude mice bearing KM12 subcutaneous xenograft tumors at the right flank were intraperitoneally treated with vehicle or 25 mg/kg CPD-060 once per day (qd), twice per day (bid), or once every two days (q2d). Tumor volumes were assessed every two days and expressed as length×width×width/2. Body weights of experimental mice were also measured to assess the toxicity of compounds.
Athymic nude mice bearing KM12 subcutaneous xenograft tumors at the right flank were treated with vehicle, 10-20 mg/kg TR-181 or TR-198 once per day (qd), or twice per day (bid) via oral gavage. Tumor volumes were assessed every two days and expressed as length×width×width/2. Body weights of experimental mice were also measured to assess the toxicity of compounds.
Mice bearing KM12 xenograft tumors were treated with vehicle, TR-231 or TR-275 orally at 40 mg/kg, twice per day for 14 days. Tumor sizes were measured every two days and presented as volume=(length×width×width)/2. […]
All animal experiments were performed under protocols approved by the Institutional Animal Care and Use Committee (IACUC) of Cullgen. […] Tumor volumes were calculated as […]. For tumor growth assays, tumor sizes and body weight of mice were measured every 2 days. For pharmacodynamic studies, the levels of TPM3-TPKA in xenograft tumors was determined following a single dose of drug administration. […]

[4] = tested on: TRK-fusions; details: phase 2 results, cited from earlier work
[5] = Mouse pharmacokinetic (PK) studies, plasma concentrations; format: in vivo, mice; details: for bioavailability: mouse, plasma, oral, male ICR mice, single dose 10 mg/kg orally or 1 mg/kg intravenously (FIG. 23A)
Method: A single […] intraperitoneal injection of compound TR-123 was evaluated. Plasma concentrations of TR-123 reported at each of the 6 time points (30 min, 1 h, […], 4 h, 8 h, and 12 h post compound administration) are the average values from 3 test animals.
A single 2 mg/kg intravenous injection and 20 mg/kg oral gavage of TR-198 were evaluated in mice. Plasma concentrations of TR-198 reported at each of the 6 time points (5 min, 30 min, 2 h, 4 h, 8 h, and 12 h post compound administration via IV, 30 min, 1 h, 2 h, 4 h, 8 h, and 12 h post compound administration via p.o.) are the average values from 3 test animals.
Plasma concentrations of TR-231 and TR-275 were determined following a single dose of 10 mg/kg orally or 1 mg/kg intravenously in male ICR mice (FIG. 23A). Plasma concentrations of TR-231 or TR-275 are examined at indicated different time points post compound administration. The reported values are the average values from 3 test animals.
Standard PK studies were conducted using male Swiss Albino mice by Sai Life Sciences or using male ICR mice by Cullgen. Plasma exposures of TR-123 (10 mg/kg, intraperitoneal injection), TR-198 (20 mg/kg, oral gavage, or 2 mg/kg, intravenous injection), TR-231 and TR-275 (10 mg/kg, oral gavage, or 1 mg/kg, intravenous injection) were determined. Plasma concentrations were reported at indicated time points as the average values derived from three experimental animals. Error bars represent standard deviations.

[6] = tested on: KM12 cells; experiment: KM12 cell viability (CellTiter-Glo); format: cell-based; details: Homo sapiens, 72 h; KM12 cell viability, CellTiter-Glo, three days treatment; read-out: IC50
In short: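 KM12 cells seeded at 5000 per well in RPMI 1640 + 10% FBS and exposed 3 days to serial dilutions (11-point 3-fold, 8-point 3-fold from 1000 nM, or 12-point 2-fold). Viability by CellTiter-Glo; IC50 from least-squares nonlinear regression.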

percent degradation of TPM3-TRKA protein at 0.01 µM [1]: > 80%
SMILES: O=C1CCC(N2C(=O)c3ccc(N4CC(CN5CCN(c6cccc(-c7cnc8ccc(N9CCC[C@@H]9c9cccc(F)c9)nn78)n6)CC5)C4)cc3C2=O)C(=O)N1 (stereo partly drawn) [TR-198, 2-(2,6-dioxopiperidin-3-yl)-5-(3-((4-(6-(6-((R)-2-(3-fluorophenyl)pyrrolidin-1-yl)imidazo[1,2-b]pyridazin-3-yl)pyridin-2-yl)piperazin-1-yl)methyl)azetidin-1-yl)isoindoline-1,3-dione]
in vivo anti-tumor activity (tumor volume) [3]: significant in vivo anti-tumor activity

percent degradation of TPM3-TRKA protein at 0.01 µM [1]: > 80% | TRKA degradation in combination with MG-132, Bortezomib, MLN4924 or Pomalidomide ([1]; KM12 cells, single dose (FIG. 9)): compromised | plasma exposure ([5]; single 20 mg/kg intraperitoneal injection, over 12 hours, average of 3 animals (FIG. 11)): good plasma exposure | TRKA degradation in combination with MG-132, Bortezomib, MLN4924 or Pomalidomide ([2]; single dose (FIG. 9)): compromised
SMILES: O=C1CCC(N2C(=O)c3ccc(NCC(=O)N4CCN(c5cccc(-c6cnc7ccc(N8CCC[C@@H]8c8cccc(F)c8)nn67)n5)CC4)cc3C2=O)C(=O)N1 (stereo partly drawn) [TR-123, 2-(2,6-dioxopiperidin-3-yl)-5-((2-(4-(6-(6-((R)-2-(3-fluorophenyl)pyrrolidin-1-yl)imidazo[1,2-b]pyridazin-3-yl)pyridin-2-yl)piperazin-1-yl)-2-oxoethyl)amino) isoindoline-1,3-dione]
TRKA protein levels ([1]; KM12 cells): reduced TRKA protein levels in a concentration-dependent manner | TRKA protein levels [2]: reduced TRKA protein levels in a concentration-dependent manner

percent degradation of TPM3-TRKA protein at 0.01 µM [1]: > 80%
SMILES: O=C1CCC(N2C(=O)c3ccc(NCCN4CCN(c5cccc(-c6cnc7ccc(N8CCC[C@@H]8c8cccc(F)c8)nn67)n5)CC4)cc3C2=O)C(=O)N1 (stereo partly drawn) [TR-181, 2-(2,6-dioxopiperidin-3-yl)-5-((2-(4-(6-(6-((R)-2˜ (3-fluorophenyl)pyrrolidin-1-yl)imidazo[1,2-b]pyridazin-3-yl)pyridin-2-yl)piperazin-1-yl)ethyl)amino) isoindoline-1,3-dione]
pIC50 [6]: 8.54 | in vivo anti-tumor activity (tumor volume) [3]: significant in vivo anti-tumor activity

percent degradation of TPM3-TRKA protein at 0.01 µM [1]: > 80%
SMILES: O=C1CCC(N2C(=O)c3ccc(NCC(=O)N4CCN(c5ccc(C(=O)Nc6n[nH]c7ccc(Cc8cc(F)cc(F)c8)cc67)c(NCCF)c5)CC4)cc3C2=O)C(=O)N1 (stereo not shown) [TR-266, N-(5-(3,5-difluorobenzyl)-1H-indazol-3-yl)-4-(4˜ ((2-(2,6-dioxopiperidin-3-yl)-1,3-dioxoisoindolin-5-yl)glycyl)piperazin-1-yl)-2-((2-fluoroethyl)amino)benzamide]
pIC50 [6]: 8.14

percent degradation of TPM3-TRKA protein at 0.01 µM [1]: > 80%
SMILES: O=C1CCC(N2Cc3ccc(N4CC(CN5CCN(c6cccc(-c7cnc8ccc(N9CCC[C@@H]9c9cccc(F)c9)nn78)n6)CC5)C4)cc3C2=O)C(=O)N1 (stereo partly drawn) [TR-317, 3-(6-(3-((4-(6-(6-((R)-2-(3-fluorophenyl)pyrrolidin-1-yl)imidazo[1,2-b]pyridazin-3-yl)pyridin-2-yl)piperazin-1-yl)methyl)azetidin-1-yl)-1-oxoisoindolin-2-yl)piperidine-2,6-dione]
pIC50 [6]: 8.30

Second part, the compound before the results:

SMILES: CN1C(=O)CCC(N2C(=O)c3ccc(NCC(=O)N4CCN(c5cccc(-c6cnc7ccc(N8CCC[C@@H]8c8cccc(F)c8)nn67)n5)CC4)cc3C2=O)C1=O (stereo partly drawn) [TR-123-negative, 5-((2-(4-(6-(6-((R)-2-(3-fluorophenyl)pyrrolidin-1-yl)imidazo[1,2-b]pyridazin-3-yl)pyridin-2-yl)piperazin-1-yl)-2-oxoethyl)amino)-2-(1-methyl-2,6-dioxopiperidin-3-yl)isoindoline-1,3-dione]
TRKA protein levels ([1]; KM12 cells): had none or less effects on TRKA protein levels | TRKA protein levels [2]: had none or less effects on TRKA protein levels

SMILES: O=C(Nc1cnn2ccc(N3CCC[C@@H]3c3cc(F)ccc3F)nc12)N1CC[C@H](O)C1 [larotrectinib]
patient remained progression-free at 1 year ([4]; at 1 year): 55% | patients responded to the therapy ([4]; patients with TRK-fusions): 75%

SMILES: O=C1CCC(N2C(=O)c3ccc(N4CC(CN5CCN(c6ccc(C(=O)Nc7n[nH]c8ccc(Cc9cc(F)cc(F)c9)cc78)c(NC7CCOCC7)c6)CC5)C4)cc3C2=O)C(=O)N1 (stereo not shown) [TR-231]
percent degradation of TPM3-TRKA protein at 0.01 µM [1]: > 80% | pIC50 [6]: 8.52 | bioavailability [5]: ~48%

SMILES: O=C1CCC(N2C(=O)c3ccc(N4CC(N5CCN(c6ccc(C(=O)Nc7n[nH]c8ccc(Cc9cc(F)cc(F)c9)cc78)c(NC7CCOCC7)c6)CC5)C4)cc3C2=O)C(=O)N1 (stereo not shown) [TR-275, N-(5-(3,5-difluorobenzyl)-1H-indazol-3-yl)-4-(4-(1-(2-(2,6-dioxopiperidin-3-yl)-1,3-dioxoisoindolin-5-yl)azetidin-3-yl)piperazin-1-yl)-2-((tetrahydro-2H-pyran-4-yl)amino)benzamide]
percent degradation of TPM3-TRKA protein at 0.01 µM [1]: 50 to 80% | pIC50 [6]: 8.05 | bioavailability [5]: ~27%
